Experimental data published in patent US6762170B1, “2-(purin-9-yl)-tetrahydrofuran-3,4-diol derivatives” (SmithKlineBeecham Corporation, priority 1998, dated 2004).
Counter-ions that a name gives are not always drawn.

Tests used:
Format in all cases: cell-based
Adenosine 3 receptor = molecular target: T1, Adenosine 3 receptor (Homo sapiens, UniProt P0DMS8); experiment: Agonist activity against adenosine 3 receptor subtype (CHO cells, forskolin-enhanced cAMP, SPAP reporter); details: EC50 ratio to NECA; transfected CHO cells, forskolin-enhanced cAMP reflected by SPAP
T1 construct: expressed in transfected cells; host or cells: Chinese hamster ovary (CHO) cells, co-transfected with a CRE-SPAP reporter
T1 sequence (P0DMS8 1-318): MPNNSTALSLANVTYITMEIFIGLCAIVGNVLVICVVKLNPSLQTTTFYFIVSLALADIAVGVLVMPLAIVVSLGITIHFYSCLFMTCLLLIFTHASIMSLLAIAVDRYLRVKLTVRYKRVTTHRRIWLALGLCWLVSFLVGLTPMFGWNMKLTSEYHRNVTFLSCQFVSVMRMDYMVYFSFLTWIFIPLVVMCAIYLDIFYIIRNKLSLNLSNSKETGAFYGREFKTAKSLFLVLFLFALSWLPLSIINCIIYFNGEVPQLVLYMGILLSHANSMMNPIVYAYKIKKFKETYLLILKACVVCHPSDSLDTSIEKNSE
Method: (§1) (1) Agonist Activity Against Adenosine 2a, Adenosine 1 and Adenosine 3 Receptor Subtypes.
(§2) Agonist selectivity of compounds against other human adenosine receptors is determined using Chinese hamster ovary (CHO) cells transfected with the gene for the relevant human adenosine receptor following a method based on that of Castanon and Spevak, 1994. The CHO cells are also transfected with cyclic AMP response elements promoting the gene for secreted placental alkaline phosphatase (SPAP) (Wood, 1995). The effect of test compounds may be determined by their effects on basal levels of cAMP (A2a) or on forskolin-enhanced cAMP (A1 and A3) as reflected by changes in levels of SPAP. EC50 values for compounds may then be determined as a ratio to that of the non-selective agonist N-ethyl carboxamide adenosine (NECA).
(§3) Values given in the Table are EC50 values as a ratio of that of NECA.

Adenosine 2a receptor = molecular target: T2, Adenosine 2a receptor (Homo sapiens, UniProt P29274); experiment: Agonist activity against adenosine 2a receptor subtype (CHO cells, cAMP response element/SPAP reporter); details: EC50 ratio to NECA; transfected CHO cells, basal cAMP reflected by SPAP
T2 construct: expressed in transfected cells; host or cells: Chinese hamster ovary (CHO) cells, co-transfected with a CRE-SPAP reporter
T2 sequence (P29274 whole entry): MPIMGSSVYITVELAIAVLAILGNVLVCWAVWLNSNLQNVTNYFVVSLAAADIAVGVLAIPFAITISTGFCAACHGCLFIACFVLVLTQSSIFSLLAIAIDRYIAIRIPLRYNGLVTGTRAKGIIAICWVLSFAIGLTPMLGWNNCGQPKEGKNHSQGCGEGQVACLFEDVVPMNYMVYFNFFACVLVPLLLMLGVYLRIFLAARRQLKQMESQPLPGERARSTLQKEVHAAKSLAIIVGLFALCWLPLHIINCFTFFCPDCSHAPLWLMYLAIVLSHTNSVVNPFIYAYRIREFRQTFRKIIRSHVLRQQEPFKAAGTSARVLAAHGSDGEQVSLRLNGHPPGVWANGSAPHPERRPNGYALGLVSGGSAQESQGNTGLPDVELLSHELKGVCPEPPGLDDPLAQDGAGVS
Method: as §1, §2, §3

Adenosine 1 receptor = molecular target: T3, Adenosine 1 receptor (Homo sapiens, UniProt P30542); experiment: Agonist activity against adenosine 1 receptor subtype (CHO cells, forskolin-enhanced cAMP, SPAP reporter); details: EC50 ratio to NECA; transfected CHO cells, forskolin-enhanced cAMP reflected by SPAP
T3 construct: expressed in transfected cells; host or cells: Chinese hamster ovary (CHO) cells, co-transfected with a CRE-SPAP reporter
T3 sequence (P30542 1-326): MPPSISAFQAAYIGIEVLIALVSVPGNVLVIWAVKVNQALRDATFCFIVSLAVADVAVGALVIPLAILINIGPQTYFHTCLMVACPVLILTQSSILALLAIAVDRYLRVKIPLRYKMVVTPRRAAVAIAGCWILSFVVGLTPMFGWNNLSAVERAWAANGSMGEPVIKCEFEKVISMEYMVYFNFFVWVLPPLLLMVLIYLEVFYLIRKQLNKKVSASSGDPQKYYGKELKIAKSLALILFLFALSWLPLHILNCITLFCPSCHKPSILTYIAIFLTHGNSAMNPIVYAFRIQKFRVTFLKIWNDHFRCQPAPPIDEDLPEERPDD
Method: as §1, §2, §3

Structure (SMILES)	A3 (EC50 values as a ratio of that of NECA) (Adenosine 3 receptor)	A2a (EC50 values as a ratio of that of NECA) (Adenosine 2a receptor)	A1 (EC50 values as a ratio of that of NECA) (Adenosine 1 receptor)
CCc1cc(C2OC(n3cnc4c(NC5CCOCC5)nc(NC(CO)Cc5ccccc5)nc43)C(O)C2O)on1 [Example 15, (2S,3S,4R,5R)-2-(3-Ethyl-isoxazol-5-yl)-5-[2-(1S-hydroxymethyl-2-phenyl-ethylamino)-6-(tetrahydro-pyran-4-ylamino)-purin-9yl]-tetrahydro-furan-3,4-diol formate]	>146	3.66	26.05
CCc1cc([C@H]2O[C@@H](n3cnc4c(NCC(c5ccccc5)c5ccccc5)nc(NCCNc5ccccn5)nc43)[C@H](O)[C@@H]2O)on1.O=CO.O=CO [Example 16, (2R,3R,4S,5S)-2-{6-(2,2-Diphenyl-ethylamino)-2-[2-(pyridin-2-ylamino)-ethylamino]-purin-9-yl}-5-(3-ethyl-isoxazol-5-yl)-tetrahydro-furan-3,4-diol diformate]	>1004	0.35	442
CCc1cc(C2OC(n3cnc4c(NCC(c5ccccc5)c5ccccc5)nc(NC(CO)Cc5ccccc5)nc43)C(O)C2O)on1 [Example 17, (2R,3R,4S,5S)-2-[6-(2,2-Diphenyl-ethylamino)-2-(1S-hydroxymethyl-2-phenyl-ethylamino)-purin-9-yl]-5-(3-ethyl-isoxazol-5-yl)-tetrahydro-furan-3,4-diol formate]	>298	0.34	1172
CCc1cc(C2OC(n3cnc4c(N)nc(NCCc5ccc(S(N)(=O)=O)cc5)nc43)C(O)C2O)on1 (stereo not drawn) [Example 18, 4-(2-{6-Amino-9-[5S-(3-ethyl-isoxazol-5-yl)-3R,4S-dihydroxy-tetrahydro-furan-2R-yl]-9H-purin-2-ylamino}-benzenesulfonamide formate]	>460	0.72	2580
CCc1cc(C2OC(n3cnc4c(NCc5cccc(I)c5)nc(NCCc5cn(C)cn5)nc43)C(O)C2O)on1.O=CO.O=CO [Example 20, (2S,3S,4R,5R)-2-(3-Ethyl-isoxazol-5-yl)-5-{6-(3-iodo-benzylamino)-2-[2-(1-methyl-1H-imidazol-4-yl)-ethylamino]-purin-9-yl}-tetrahydro-furan-3,4-diol diformate]	>267	2.04	310.9
CCc1cc(C2OC(n3cnc4c(NCCC5CCCCC5)nc(NC(CO)Cc5ccccc5)nc43)C(O)C2O)on1 [Example 22, (2R,3R,4S,5S)-2-[6-(2-Cyclohexyl-ethylamino)-2-(1 S-hydroxy-methyl-2-phenyl-ethylamino)-purin-9-yl]-5-(3-ethyl-isoxazol-5-yl)-tetrahydro-furan-3,4-diol formate]	>254	9.17	8026.2
CCc1cc(C2OC(n3cnc4c(NCC(c5ccccc5)c5ccccc5)nc(NCCNC(=N)N)nc43)C(O)C2O)on1 (stereo not drawn) [Example 23, N-2-{6-(2,2-Diphenyl-ethylamino)-9-[5S-(3-ethyl-isoxazol-5-yl)-3R,4S-dihydroxy-tetrahydro-furan-2R-yl]-9H-purin-2-ylamino}-ethyl)-guanidine diformate]	>282	13.4	>=3263
CCc1cc(C2OC(n3cnc4c(NCC(c5ccccc5)c5ccccc5)nc(NC5CCC(NC(C)=O)CC5)nc43)C(O)C2O)on1 (stereo not drawn) [Example 24, N-(4-{6-(2,2-Diphenyl-ethylamino)-9-[5S-(3-ethyl-isoxazol-5-yl)-3R,4S-dihydroxy-tetrahydro-furan-2R-yl]-9H-purin-2-ylamino}-cyclohexyl)-acetamide formate]	>248	0.23	573.6
CCc1cc(C2OC(n3cnc4c(NCCS(=O)(=O)NC)nc(NCCNC(=N)N)nc43)C(O)C2O)on1 (stereo not drawn) [Example 25, 2-[2-9-[5S-(3-Ethyl-isoxazol-5-yl)-3R,4S-dihydroxy-tetrahydro-furan-2R-yl]-2-(2-guanidino-ethylamino)-9H-purin-6-ylamino]-ethanesulfonic acid methylamide diformate]	>198	5.46	103.8
CCc1cc(C2OC(n3cnc4c(NCCS(=O)(=O)NC)nc(NC(CO)Cc5ccccc5)nc43)C(O)C2O)on1 (stereo not drawn) [Example 27, 2-[9-[5S-(3-Ethyl-isoxazol-5-yl)-3R,4S-dihydroxy-tetrahydro-furan-2R-yl]-2-(1S-hydroxymethyl-2-phenyl-ethylamino)-9H-purin-6-ylamino]-ethanesulfonic acid methylamide formate]	>273	3	3.18

Next, values leading:

A3 (EC50 values as a ratio of that of NECA) (Adenosine 3 receptor)	A2a (EC50 values as a ratio of that of NECA) (Adenosine 2a receptor)	A1 (EC50 values as a ratio of that of NECA) (Adenosine 1 receptor)	Structure (SMILES)
>267	1.55	1624.29	CCc1cc(C2OC(n3cnc4c(NCCC5CCCCC5)nc(NCCc5cn(C)cn5)nc43)C(O)C2O)on1.O=CO.O=CO [Example 21, (2R,3R,4S,5S)-2-{6-(2-Cyclohexyl-ethylamino)-2-[2-(1-methyl-1H-imidazol-4-yl)-ethylamino]-purin-9-yl}5-(3-ethyl-isoxazol-5-yl)-tetrahydro-furan-3,4-diol diformate]
>286	6.89	273.3	CCc1cc(C2OC(n3cnc4c(NC5CCS(=O)(=O)CC5)nc(NCCNC(=N)N)nc43)C(O)C2O)on1 (stereo not drawn) [Example 26, N-(2-{6-(1,1-Dioxo-hexahydro-1λ6-thiopyran-4-ylamino)-9-[5S-(3-ethyl-isoxazol-5-yl)-3R ,4S-dihydroxy-tetrahydro-furan-2R-yl]-9H-purin-2-ylamino}-ethyl)-guanidine diformate]
>263	14.5	165.8	CCc1cc(C2OC(n3cnc4c(NC5CCN(C(C)=O)CC5)nc(NC(CO)Cc5ccccc5)nc43)C(O)C2O)on1 (stereo not drawn) [Example 28, 1-{4-[9-[5S-(3-Ethyl-isoxazol-5-yl)-3R,4S-dihydroxy-tetrahydro-furan-2R-yl]-2-(1S-hydroxymethyl-2-phenyl-ethylamino)-9H-purin-6-ylamino]-piperidin-1-yl}-ethanone formate]
>298	5.03	27.24	CCc1cc(C2OC(n3cnc4c(NC5CCN(C(C)=O)CC5)nc(NC5CCC(N)CC5)nc43)C(O)C2O)on1 (stereo not drawn) [Example 29, 1-(4-{2-(trans-4-Amino-cyclohexylamino)-9-[5S-(3-ethyl-isoxazol-5-yl)-3R,4S-dihydroxy-tetrahydro-furan-2R-yl]-9H-purin-6-ylamino}-piperidin-1-yl)-ethanone diformate]
>257	4.58	108.8	CCc1cc([C@@H]2O[C@H](n3cnc4c(NC5CCSCC5)nc(NCCc5ccccn5)nc43)[C@@H](O)[C@H]2O)on1.O=CO.O=CO [Example 30, (2R,3R,4S,5S)-2-(3Ethyl-isoxazol-5-yl)-5-[2-(2-pyridin-2-yl-ethylamino)-6-(tetrahydro-thiopyran-4-ylamino)-purin-9-yl]-tetrahydro-furan-3,4-diol diformate]
>310	10.59	577.2	CCc1cc(C2OC(n3cnc4c(NC5CCS(=O)(=O)CC5)nc(NCCN5CCCCC5)nc43)C(O)C2O)on1.O=CO.O=CO [Example 31, (2R,3R,4S,5S)-2-[6-(1,1-Dioxo-hexahydro-1λ6-thiopyran-4-ylamino)-2-(2-piperidin-1-yl-ethylamino)-purin-9-yl]-5-(3-ethyl-isoxazol-5-yl)-tetrahydro-furan-3,4-diol diformate]
